# Measurements reported in patent publication US4873342A, “Dipeptide derivative and synthesis and use thereof” (Suntory Limited, priority 1985, dated 1989).
# Peptide text beside a SMILES is read from it. * marks the point of attachment. Hydrocinnamoyl = O=C(CCc1ccccc1)*; PhAc = O=C(Cc1ccccc1)*
# Columns and labels:
# prolyl endopeptidase = prolyl endopeptidase (Elizabethkingia meningoseptica, UniProt P27028); test: Measurement of anti-prolyl endopeptidase activity (decomposition of Z-glycyl-prolyl-β-naphthylamide); type: biochemical; conditions: substrate Z-glycyl-proline-β-naphthylamide, phosphate buffer pH 7.0
# Method: The method of Yoshimoto and Tsuru (T. Yoshimoto and D. Tsuru, Agr. Biol. Chem. 42, 2417, 1978) was used to measure the anti-prolyl endopeptidase activities of several compounds according to the present invention. A mixture of 0.0025M Z--glycyl--proline--β--naphthylamide (0.25 ml), 0.1M phosphate buffer (pH 7.0; 0.99 ml) and a solution of a particular anti-prolyl endopeptidase compound (0.01 ml) was incubated in a test tube at 37° C. for 3 minutes. Thereafter […] of a solution of prolyl endopeptidase (0.2 U/ml) was added and the mixture was heated at 35° C. for 10 minutes. After the reaction, 2.0 ml of Triton x-100 in 1M acetate buffer (pH 4.0) was added to the reaction mixture until the final concentration of the surfactant was 10%. The mixture was left at a room temperature for 15 minutes and the absorbance (a) at 410 nm was measured.
# A sample for a blind test was prepared by using the buffer solely in place of the anti-prolyl endopeptidase compound and its absorbance (b) was also measured. The percent inhibition of prolyl endopeptidase was calculated by the formula: [(b-a)/b]×100, and the amount of a specific compound needed to achieve 50% inhibition (IC50) was determined.
# [1] = test system: Experimental Amnesia caused in Rats by Scopolamine; test: Preventive effect against experimental amnesia caused in rats by scopolamine (passive avoidance, intraperitoneal administration); type: in vivo, Wister male rats; conditions: for No. of amnesic rats/No. of rats tested / Percentage amnesia / Avoidance time After 24 hrs. / Avoidance time After 48 hrs.: i.p., scopolamine 3 mg/kg i.p.
# Method: Several of the anti-prolyl endopeptidase compounds according to the present invention were checked for their ability to prevent the inhibition of long-term memory fixation by scopolamine. […] One hour after the administration, electric shocks were applied to the rats so that they would acquire passive avoidance learning. Immediately thereafter, scopolamine was administered intraperitoneally to each rat in an amount of 3 mg per kg of body weight.
# The results of the test were assessed both 24 hours and 48 hours after the administration of scopolamine. The number of amnesic rats and of sound rats was counted for each of the control group (rats to which the test compounds were not administered but to which only scopolamine and physiological saline were administered intraperitoneally) and the treated group (rats to which both the test compound and scopolamine were administered).
# CDF-1 strain male mice = test: Acute toxicity test in mice; type: in vivo; conditions: i.p. in DMSO, five mice per group, observed 24 and 48 hours after administration
# Method: The compounds of the present invention were checked for their acute toxicity in CDF-1 strain male mice (body weight: 27.2 to 30.1 g) purchased from Awazu Laboratory Animals Co., Ltd.
# Test samples were prepared by dissolving the respective compounds in DMSO, and a portion (0.1 ml) of the so conditioned test sample was administered intraperitoneally to each of the mice used. Each of the treated groups consisted of five mice. After 24 hours and 48 hours had passed from the time of administration, respectively, the mice were observed.
# Male mice of ddY-strain = test: Anti-hypoxia effect (survival time at 180 mmHg); type: in vivo; conditions: for No. of survival/used, Drug / Survival time, Drug (Mean ± S.E.): mice, 180 mmHg
# Method: Male mice of ddY-strain weighing 25 to 34 g were allotted to groups consisting of 7 to 10 animals each. Each compound to be tested was suspended in physiological saline with 2 to 3 drops of Tween 80® added thereto, and administered intraperitoneally at the rate of 0.1 ml per 10 g of body weight.
# Each mouse was put into a 1 l desiccator 30 minutes after the administration, and the pressure in the desiccator was reduced to 180 mmHg by means of a vacuum pump. The period from the start of pressure reduction to the respiratory arrest of the mouse was assumed to be the survival time (minute) of the mouse.
# If the mouse survived more than 15 minutes, its survival time was recorded as being 15 minutes. A student's t-test was adopted for the significance analysis.
# Sequence of prolyl endopeptidase (P27028 21-705): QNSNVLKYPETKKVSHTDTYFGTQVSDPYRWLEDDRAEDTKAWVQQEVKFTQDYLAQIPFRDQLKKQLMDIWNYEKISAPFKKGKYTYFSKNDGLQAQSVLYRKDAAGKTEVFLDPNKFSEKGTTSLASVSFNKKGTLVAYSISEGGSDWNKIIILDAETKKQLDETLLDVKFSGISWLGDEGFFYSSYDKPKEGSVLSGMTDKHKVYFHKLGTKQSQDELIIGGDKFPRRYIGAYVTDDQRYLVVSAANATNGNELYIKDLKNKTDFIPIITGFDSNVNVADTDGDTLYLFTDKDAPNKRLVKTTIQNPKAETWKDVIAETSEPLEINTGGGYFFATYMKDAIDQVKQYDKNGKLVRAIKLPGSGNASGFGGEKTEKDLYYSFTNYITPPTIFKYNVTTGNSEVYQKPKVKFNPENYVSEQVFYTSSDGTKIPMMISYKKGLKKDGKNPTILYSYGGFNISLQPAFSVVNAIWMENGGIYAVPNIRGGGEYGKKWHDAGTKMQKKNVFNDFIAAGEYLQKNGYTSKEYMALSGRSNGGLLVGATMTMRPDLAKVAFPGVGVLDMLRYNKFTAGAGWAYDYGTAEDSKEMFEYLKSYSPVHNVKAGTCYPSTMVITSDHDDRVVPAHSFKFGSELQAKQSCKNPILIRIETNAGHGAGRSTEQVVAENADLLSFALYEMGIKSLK
smiles,measurement,setting,value
"CCCCC(NC(=O)CCCc1ccccc1)C(=O)N1CCCC1C=O (stereo not shown) [SUAM 1333, N--(4-phenyl)butanoyl--norLeu--Pro--CHO]",IC50 (amount needed to achieve 50% inhibition of prolyl endopeptidase),prolyl endopeptidase,0.4 ng/test tube
same,No. of amnesic rats/No. of rats tested,[1]; 20 μg/kg,0/10
same,Percentage amnesia,[1]; 20 μg/kg,0
same,Avoidance time After 24 hrs.,[1]; 20 μg/kg,300.0 s
same,anti-amnesic effect (in words),[1]; at 0.020 mg/kg,strong effect
same,Average-Dose at which the mice remained sound and showed no sign of intoxication,CDF-1 strain male mice,707.7 mg/kg
"O=C[C@@H]1CCCN1C(=O)[C@H](Cc1ccccc1)NC(=O)CCCc1ccccc1 [SUAM 1234, N--(4-phenyl)butanoyl--Phe--Pro--CHO]",IC50 (amount needed to achieve 50% inhibition of prolyl endopeptidase),prolyl endopeptidase,0.3 ng/test tube
same,Survival time Ratio (Drug/Control),Male mice of ddY-strain; 1 mg/kg i.p.,1.24
same,"No. of survival/used, Drug",Male mice of ddY-strain; 1 mg/kg i.p.,0/7
same,"Survival time, Drug (Mean ± S.E.)","Male mice of ddY-strain; 1 mg/kg i.p., control 2.32 ± 0.11, *P < 0.05",2.88 ± 0.17 min
same,Survival time Ratio (Drug/Control),Male mice of ddY-strain; 10 mg/kg i.p.,1.09
same,"No. of survival/used, Drug",Male mice of ddY-strain; 10 mg/kg i.p.,0/7
same,"Survival time, Drug (Mean ± S.E.)","Male mice of ddY-strain; 10 mg/kg i.p., control 2.25 ± 0.15",2.45 min
"O=C[C@@H]1CCCN1C(=O)[C@@H]1CCCN1C(=O)CCCCc1ccccc1 [SUAM 1342, N--(5-phenyl)pentanoyl--Pro--Pro--CHO]",IC50 (amount needed to achieve 50% inhibition of prolyl endopeptidase),prolyl endopeptidase,0.2 ng/test tube
"CC(C)CC(NC(=O)CCCc1ccccc1)C(=O)N1CCCC1C=O (stereo not shown) [SUAM 1115, N--(4-phenyl)butanoyl--Leu--Pro--CHO]",IC50 (amount needed to achieve 50% inhibition of prolyl endopeptidase),prolyl endopeptidase,0.3 ng/test tube
same,No. of amnesic rats/No. of rats tested,[1]; 25 μg/kg,0/10
same,Percentage amnesia,[1]; 25 μg/kg,0
same,Avoidance time After 24 hrs.,[1]; 25 μg/kg,300.0 s
same,Avoidance time After 48 hrs.,[1]; 25 μg/kg,300.0 s
same,anti-amnesic effect (in words),[1]; 0.025 mg/kg administered,very strong effects
same,No. of amnesic rats/No. of rats tested,[1]; 100 μg/kg,0/10
same,Percentage amnesia,[1]; 100 μg/kg,0
same,Avoidance time After 24 hrs.,[1]; 100 μg/kg,300.0 s
same,Avoidance time After 48 hrs.,[1]; 100 μg/kg,300.0 s
same,anti-amnesic effect (in words),[1]; 0.1 mg/kg administered,very strong effects
same,No. of amnesic rats/No. of rats tested,[1]; 250 μg/kg,3/10
same,Percentage amnesia,[1]; 250 μg/kg,30
same,Avoidance time After 24 hrs.,[1]; 250 μg/kg,193.2 s
same,Avoidance time After 48 hrs.,[1]; 250 μg/kg,217.1 s
same,anti-amnesic effect (in words),[1]; administration of 1 mg/kg,did not manifest the desired effect
"C[C@H](NC(=O)CCCc1ccccc1)C(=O)N1CCC[C@H]1C=O [SUAM 1110, N--(4-phenyl)butanoyl--Ala--Pro--CHO]",anti-amnesic effect (in words),[1]; 0.025 mg/kg administered,very strong effects
same,anti-amnesic effect (in words),[1]; 0.1 mg/kg administered,very strong effects
same,No. of amnesic rats/No. of rats tested,[1]; 250 μg/kg,0/10
same,Percentage amnesia,[1]; 250 μg/kg,0
same,Avoidance time After 24 hrs.,[1]; 250 μg/kg,300.0 s
same,Avoidance time After 48 hrs.,[1]; 250 μg/kg,300.0 s
same,No. of amnesic rats/No. of rats tested,[1]; 1 mg/kg,1/10
same,Percentage amnesia,[1]; 1 mg/kg,10
same,Avoidance time After 24 hrs.,[1]; 1 mg/kg,272.8 s
same,Avoidance time After 48 hrs.,[1]; 1 mg/kg,271.2 s
same,anti-amnesic effect (in words),[1]; administration of 1 mg/kg,did not manifest the desired effect
"CSCC[C@H](NC(=O)CCCc1ccccc1)C(=O)N1CCC[C@H]1C=O [SUAM 1345, N--(4-phenyl)butanoyl--Met--Pro--CHO]",IC50 (amount needed to achieve 50% inhibition of prolyl endopeptidase),prolyl endopeptidase,0.7 ng/test tube
"O=C[C@@H]1CCCN1C(=O)[C@@H]1CCCN1C(=O)CCCc1ccccc1 [SUAM 1231, N--(4-phenyl)butanoyl--Pro--Pro--CHO]",IC50 (amount needed to achieve 50% inhibition of prolyl endopeptidase),prolyl endopeptidase,0.2 ng/test tube
same,No. of amnesic rats/No. of rats tested,[1]; 20 μg/kg,0/10
same,Percentage amnesia,[1]; 20 μg/kg,0
same,Avoidance time After 24 hrs.,[1]; 20 μg/kg,300.0 s
same,anti-amnesic effect (in words),[1]; at 0.020 mg/kg,strong effect
same,Average-Dose at which the mice remained sound and showed no sign of intoxication,CDF-1 strain male mice,634.6 mg/kg
"O=C[C@@H]1CCCN1C(=O)[C@@H]1CCCN1C(=O)Cc1ccccc1 [SUAM 1336, N--(2-phenyl)acetyl--Pro--Pro--CHO] (PhAc-Pro-Pro-aldehyde)",IC50 (amount needed to achieve 50% inhibition of prolyl endopeptidase),prolyl endopeptidase,1.0 ng/test tube
"CC(C)[C@H](NC(=O)CCCc1ccccc1)C(=O)N1CCC[C@H]1C=O [SUAM 1117, N--(4-phenyl)butanoyl--Val--Pro--CHO]",IC50 (amount needed to achieve 50% inhibition of prolyl endopeptidase),prolyl endopeptidase,0.2 ng/test tube
same,No. of amnesic rats/No. of rats tested,[1]; 25 μg/kg,1/10
same,Percentage amnesia,[1]; 25 μg/kg,10
same,Avoidance time After 24 hrs.,[1]; 25 μg/kg,300.0 s
same,Avoidance time After 48 hrs.,[1]; 25 μg/kg,289.5 s
same,anti-amnesic effect (in words),[1]; 0.025 mg/kg administered,very strong effects
same,No. of amnesic rats/No. of rats tested,[1]; 100 μg/kg,0/10
same,Percentage amnesia,[1]; 100 μg/kg,0
same,Avoidance time After 24 hrs.,[1]; 100 μg/kg,300.0 s
same,Avoidance time After 48 hrs.,[1]; 100 μg/kg,300.0 s
same,anti-amnesic effect (in words),[1]; 0.1 mg/kg administered,very strong effects
same,No. of amnesic rats/No. of rats tested,[1]; 250 μg/kg,4/10
same,Percentage amnesia,[1]; 250 μg/kg,40
same,Avoidance time After 24 hrs.,[1]; 250 μg/kg,232.0 s
same,Avoidance time After 48 hrs.,[1]; 250 μg/kg,194.4 s
same,No. of amnesic rats/No. of rats tested,[1]; 1 mg/kg,6/10
same,Percentage amnesia,[1]; 1 mg/kg,60
same,Avoidance time After 24 hrs.,[1]; 1 mg/kg,161.6 s
same,Avoidance time After 48 hrs.,[1]; 1 mg/kg,125.0 s
same,anti-amnesic effect (in words),[1]; administration of 1 mg/kg,did not manifest the desired effect
"O=C[C@@H]1CCCN1C(=O)[C@@H]1CCCN1C(=O)CCc1ccccc1 [SUAM 1339, N--(3-phenyl)propionyl--Pro--Pro--CHO] (Hydrocinnamoyl-Pro-Pro-aldehyde)",IC50 (amount needed to achieve 50% inhibition of prolyl endopeptidase),prolyl endopeptidase,0.4 ng/test tube
